Data published in patent publication US7138543B2, “Thiolalkyl benzoic acid derivatives” (Guilford Pharmaceuticals Inc., priority 2001, dated 2006).

How the values were obtained:
[1] = system: BB/W diabetic rats; assay: Nerve conduction velocity in BB/W model; assay type: in vivo; conditions: 10 mg/kg daily; vs diabetic vehicle controls, from 8 weeks to six months, FIG. 12
From the text: (§1) Male BB/W rats (BRI, Mass) spontaneously develop a cell mediated autoimmune destruction of pancreatic B cells, resulting in onset of insulin-dependent (Type I) diabetes (Awata, Guberski, Endocrinology (1995) 136(12):5731–5). […] This renders them valuable for experimental trials of new compounds for future treatments of this major disorder. In the present study, Compound A and Compound D were examined for their ability to alter the progression of diabetic neuropathy. The rats received daily injection of Compound A or Compound D (10 mg/kg i.p.) or vehicle, starting at the onset of diabetes (hyperglycemia) and up to 6 months thereafter. Another group of non-diabetic rats also receiving vehicle were tested. All animals were continuously monitored for body weight, urine volume, blood sugar and glycated haemoglobin. In the first month of the study, all animals were tested for thermal nociception in a Hargreaves apparatus, weekly. After the first month this was done biweekly and then monthly. […]
Nerve conduction velocity was also measured every two weeks through the first eight weeks of treatment and every month thereafter through to the six months of treatment (see De Koning et al., Peptides, Vol. 8, No. 3, pp. 415–22 (1987) for a description of the experimental method). […]

[2] = system: BB/W diabetic rats; assay: Progression of neuropathic pain in BB/W model (withdrawal latency); assay type: in vivo; conditions: 10 mg/kg i.p. daily; vs diabetic vehicle-treated rats, from 4 weeks through six months of treatment, FIG. 11
From the text: In vivo Assay of NAALADase Inhibitors on Progression of Neuropathic Pain in BB/W Models
as §1, with “monthly. The testing consists of directing an infrared heat source onto the dorsal surface of the rat hindpaw and noting the time taken for the animal to remove its paw (see Hargreaves et al., J. Biol. Chem. (1988) 263(36):19392–7 for a description of the experimental method).” for “monthly.”

[3] = system: rats with unilateral elevation of intraocular pressure; assay: Experimental rat glaucoma (IOP elevation, optic nerve fiber counting); assay type: in vivo; conditions: 8 week group
Description: Protective Effect of NAALADase Inhibitors in Experimental Rat Glaucoma
(§2) All experiments complied with the Association for Research in Vision and Ophthalmology Statement for the Use of Animals in Ophthalmic and Vision Research. 82 male Brown Norway rats (Rattus norvegicus), each weighing approximately 250 gm, were treated using procedures approved by the Animal Care Committee of the Johns Hopkins University School of Medicine. The rats were housed with a 12 hour light/12 hour dark cycle and fed ad libitum.
EXPERIMENTAL GLAUCOMA: Unilateral elevation of intraocular pressure (“IOP”) was produced in 56 rats by microinjection of hypertonic saline into episcleral veins, following procedures described in Morrison, J. et al., IOVS (March 1998) 39:526–531. Beginning on the day of IOP elevation, the rats were treated daily with intraperitoneal injections of either a vehicle (23 rats with 50 mM HEPES-buffered saline) or a NAALADase inhibitor (11 rats with 10 mg/kg of Compound A and 22 rats with 10 mg/kg of Compound B). 11 saline treated rats, 11 Compound A treated rats and 11 Compound B treated rats were sacrificed at 8 weeks, and the remaining rats at 12 weeks, after initial IOP elevation.
(§3) OPTIC NERVE COUNTING: The rats were sacrificed by exsanguination under deep pentobarbital anesthesia. They were perfused through the heart with 2% paraformaldehyde/2% glutaraldehyde in 0.1 M phosphate buffer, pH 7.2, and the eyes with attached optic nerves were removed. A cross-section of the optic nerve from both experimental (glaucoma or transection) and control eyes was removed 1.5 mm posterior to the globe, 1 mm in thickness, and post-fixed in 2% osmium tetroxide in buffer. These were processed into epoxy resin, sectioned at 1 micron and stained with toluidine blue.
(§4) The area of the optic nerve cross-section was measured by outlining its outer border at 10× magnification on an image analysis system (Universal Imaging Corp., Westchester, Pa.) with Synsys digital camera and Metamorph software. Three area measurements were taken and the mean value was determined. To measure the density and fiber diameter distributions, images were captured with a 100× phase contrast objective from 10 different areas of each nerve. These were edited to eliminate non-neural objects and the size of each axon internal to the myelin sheath (its minimum diameter) and the density of axons/square mm were calculated for each image and nerve. The mean density was multiplied by total nerve area to yield fiber number for each nerve. The total fiber number in glaucoma or transection nerves was compared to the normal, fellow eye of each rat to yield a percent loss value. The number of axons counted among the 10 images was an approximately 20% sample of the 80–90,000 axons in normal rat nerves. The person measuring axon number was masked to the protocol conducted on the nerves.

[4] = system: rats with unilaterally transected optic nerve; assay: Optic nerve transection (optic nerve fiber counting); assay type: in vivo, Rattus norvegicus; conditions: for FIBER NUMBER: 10 mg/kg daily intraperitoneal
Description: as §2
OPTIC NERVE TRANSECTION: The optic nerve was transected unilaterally in 26 rats under intraperitoneal pentobarbital anesthesia. The conjunctiva was opened with scissors and the optic nerve exposed by traction on extraocular muscles. The transection was performed with microscissors 5 mm posterior to the globe, with specific attention to avoidance of injury to major ocular blood vessels. Immediately after transection, the retina was examined ophthalmoscopically to assure that the retinal arterial blood supply was not disrupted. The conjunctiva was closed with absorbable suture and the eye dressed with antibiotic ointment. Beginning on the day of transection, the rats were treated daily with intraperitoneal injections of either a vehicle (9 rats with 50 mM HEPES-buffered saline) or a NAALADase inhibitor (8 rats with 10 mg/kg of Compound A and 9 rats with 10 mg/kg of Compound B). 5 saline treated rats, 3 Compound A treated rats, and 4 Compound B treated rats were sacrificed at 2 weeks, and the remaining rats at 4 weeks, after transection.
as §3, §4

[5] = 2 weeks survival after transection
[6] = 4 weeks survival after transection

## O=C(O)CCC(CP(=O)(O)Cc1c(F)c(F)c(F)c(F)c1F)C(=O)O (stereo not drawn) [Compound A]
[1]
  nerve conduction velocity: significantly less severe nerve conduction deficits
[2]
  withdrawal latency: longer withdrawal latencies
[3]; 10 mg/kg daily intraperitoneal
  FIBER NUMBER: 79156 ± 2436
[3]; positive value indicates fewer fibers in the glaucoma eye
  PERCENT DIFFERENCE in fiber number between glaucoma and normal eye: −1.82 ± 2.92%
[4]; 2 weeks after transection
  remaining axons relative to the saline-treated rats: 3 times
[4]; [5]
  PERCENT DIFFERENCE in fiber number: 65.3 ± 30.9%
  FIBER NUMBER: 26,426 ± 23,025
[4]; [6]
  PERCENT DIFFERENCE in fiber number: 82.4 ± 8.9%
  FIBER NUMBER: 13,599 ± 7,868
